Results taken from patent US11566030B2, “Substituted 2,6-dihydropyrrolo[3,4-c]pyrazoles as pyruvate kinase activators” (priority 2021, dated 2023).
Read-outs that look alike come from different tables or passages of the source.

Target: T1, Human pyruvate kinase R (PKR) (Homo sapiens, UniProt P30613)
T1 construct: Human pyruvate kinase R (PKR), residues 14-574; 6xHis-8xArg-SUMO (N, cleaved yes); host or cells: E. coli
Experiment: Biochemical assay for activation of pyruvate kinase R (Kinase-Glo luminescence, ATP generation)
Details: for Emax: read-out: PKR % activation, maximal activation level achieved with each compound relative to the activation level achieved by AG-348 @ 10 μM
Protocol: Human pyruvate kinase R (PKR), residues 14-574, and human pyruvate kinase M2, residues 1-531, were cloned into expression plasmids and obtained from ATUM Bio (Newark, Calif.). Proteins were translated as fusions with 6×-His,8×-Arg, and SUMO at the N-terminus. A third construct of human PKR was truncated, residues 50-574, and similarly cloned for use in crystallography experiments. All proteins were cloned, expressed in E. coli, and purified using similar protocols. Cells were grown at 30° C. in Luria-Bertani broth supplemented with 0.4% glucose to OD600=0.8 and induced with 0.4 mM IPTG at 16° C. for 18 hours. Cells were harvested by centrifugation, resuspended in 50 mM potassium phosphate pH 8.0, 500 mM NaCl, 25 mM imidazole pH 8.0, and 3 mM β-mercaptoethanol. Cells were lysed using a LM20 microfluidizer from Microfluidics (Westwood, Mass.). The crude lysate was immediately supplemented with 0.2 mM phenylmethylsulfonyl fluoride (PMSF) and centrifuged at 20,000 g for 20 minutes. The soluble fraction was subsequently incubated with 2 mL Ni-NTA (GE Healthcare) per 1,000 ODs for 1 hour at 4° C. Following incubation with the Ni-NTA resin, lysate was removed by pelleting resin at 2,500 g for 3 minutes and washed 3 times with 9 bed volumes of 50 mM potassium phosphate pH 8.0, 500 mM NaCl, 25 mM imidazole, and 3 mM β-mercaptoethanol. Following the batch wash Ni-NTA resin was loaded onto a gravity column and His-tagged protein was eluted with 6 bed volumes of 10 mM Tris/HCl pH 8.0, 200 mM NaCl, 500 mM imidazole, and 3 mM β-mercaptoethanol. Eluted protein was dialyzed overnight against 10 mM Tris/HCl pH 8.0, 200 mM NaCl, and 1 mM DTT and the 6×-His-8×-Arg-SUMO-tag was cleaved using a 20:1 molar ratio of protein: 3C protease. The protein was purified by anion exchange chromatography on a HiTrapQ or MonoQ 10/100 GL column (GE Healthcare) via a linear NaCl gradient and twice by size exclusion chromatography using a Superdex S200 26/60 column (GE Healthcare) run in 10 mM Tris/HCl pH 8.0, 200 mM NaCl, 10 mM MgCl2, 1 mM DTT. Proteins were concentrated to −12 mg/mL for crystallization and flash frozen for storage.
Biochemical assay for Activation of Pyruvate Kinase R
Activation of pyruvate kinase R (PKR) and pyruvate kinase M2 (PKM2) were measured using a luminescence based measurement of ATP generation and the Kinase-Glo luminescent kinase reagent kit.

[1] = PKR AC50 (nM), 0.1 nM PKR, 0.3 mM ADP, 0.1 mM PEP, 1% DMSO

T1 sequence (P30613 14-574): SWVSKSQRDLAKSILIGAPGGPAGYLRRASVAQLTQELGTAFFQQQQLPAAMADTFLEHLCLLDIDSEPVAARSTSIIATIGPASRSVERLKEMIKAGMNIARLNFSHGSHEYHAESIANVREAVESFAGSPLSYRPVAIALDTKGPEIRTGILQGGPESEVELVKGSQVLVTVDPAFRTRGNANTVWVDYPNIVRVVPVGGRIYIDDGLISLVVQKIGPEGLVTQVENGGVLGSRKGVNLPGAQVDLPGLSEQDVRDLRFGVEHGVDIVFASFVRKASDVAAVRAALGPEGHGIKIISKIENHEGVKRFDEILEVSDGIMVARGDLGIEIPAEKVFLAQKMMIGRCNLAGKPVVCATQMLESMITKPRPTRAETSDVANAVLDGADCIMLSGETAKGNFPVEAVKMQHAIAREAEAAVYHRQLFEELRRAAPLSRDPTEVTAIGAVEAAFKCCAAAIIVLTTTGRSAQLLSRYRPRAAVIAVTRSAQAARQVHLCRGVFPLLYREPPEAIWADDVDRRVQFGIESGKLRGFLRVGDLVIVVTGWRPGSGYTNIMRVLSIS

| Compound | AC50 [1] | Emax | AC50 | PKR % activation (maximal activation level achieved with each compound relative to the activation level achieved by AG-348 @ 10 μM) |
| --- | --- | --- | --- | --- |
| CCn1ncc(S(=O)(=O)n2cc3c(n2)CN(C(=O)[C@H](CO)c2ccccc2)C3)c1C(F)(F)F [Compound 111, (2S)-1-{2-[1-ethyl-5-(trifluoromethyl)pyrazol-4-ylsulfonyl]-4H,6H-pyrrolo[3,4-c]pyrazol-5-yl}-3-hydroxy-2-phenylpropan-1-one] | 1600 nM | 42% |  |  |
| Cc1cn(CC(F)(F)F)nc1S(=O)(=O)n1cc2c(n1)CN(C(=O)[C@@H](CO)c1ccccc1Cl)C2 [Compound 71, (2R)-2-(2-chlorophenyl)-3-hydroxy-1-{2-[4-methyl-1-(2,2,2-trifluoroethyl)pyrazol-3-ylsulfonyl]-4H,6H-pyrrolo[3,4-c]pyrazol-5-yl}propan-1-one] | 3900 nM | 30% |  |  |
| Cc1cn(CC(F)(F)F)nc1S(=O)(=O)n1cc2c(n1)CN(C(=O)[C@@H](CO)c1ccccc1F)C2 [Compound 69, (2R)-2-(2-fluorophenyl)-3-hydroxy-1-{2-[4-methyl-1-(2,2,2-trifluoroethyl)pyrazol-3-ylsulfonyl]-4H,6H-pyrrolo[3,4-c]pyrazol-5-yl}propan-1-one] | 15 nM | 4% |  |  |
| Cc1cn(CC(F)F)nc1S(=O)(=O)n1cc2c(n1)CN(C(=O)[C@H](CO)c1ccccc1)C2 [Compound 76, (2S)-1-{2-[1-(2,2-difluoroethyl)-4-methylpyrazol-3-ylsulfonyl]-4H,6H-pyrrolo[3,4-c]pyrazol-5-yl}-3-hydroxy-2-phenylpropan-1-one] | 3800 nM | 3% |  |  |
| CCOc1ncc(S(=O)(=O)n2cc3c(n2)CN(C(=O)[C@H](CO)c2ccccc2)C3)s1 [Compound 119, (2S)-1-{2-[(2-ethoxy-1,3-thiazol-5-yl)sulfonyl]-2H,4H,5H,6H-pyrrolo[3,4-c]pyrazol-5-yl}-3-hydroxy-2-phenylpropan-1-one] |  | 58% | 54 nM |  |
| Cc1c(S(=O)(=O)n2cc3c(n2)CN(C(=O)[C@@H](CO)c2ccccc2F)C3)cnn1CCF [Compound 97, (2R)-1-{2-[1-(2-fluoroethyl)-5-methylpyrazol-4-ylsulfonyl]-4H,6H-pyrrolo[3,4-c]pyrazol-5-yl}-2-(2-fluorophenyl)-3-hydroxypropan-1-one] |  | 102% | 550 nM |  |
| O=C([C@H](CO)c1ccccc1)N1Cc2cn(S(=O)(=O)c3cnn(C(F)F)c3)nc2C1 [Compound 116, (2S)-1-(2-{[1-(difluoromethyl)-1H-pyrazol-4-yl]sulfonyl}-2H,4H,5H,6H-pyrrolo[3,4-c]pyrazol-5-yl)-3-hydroxy-2-phenylpropan-1-one] | 34 nM | 53% |  |  |
| COCCn1ccc(S(=O)(=O)n2cc3c(n2)CN(C(=O)[C@H](CO)c2ccccc2F)C3)n1 [Compound 44, (2S)-2-(2-fluorophenyl)-3-hydroxy-1-[2-[1-(2-methoxyethyl)pyrazol-3-ylsulfonyl]-4H,6H-pyrrolo[3,4-c]pyrazol-5-yl]propan-1-one] | 110 nM | 53% |  |  |
| Cc1cn(CC(F)(F)F)nc1S(=O)(=O)n1cc2c(n1)CN(C(=O)C1(c3ncccc3Cl)COC1)C2 [Compound 75, (3-(3-chloropyridin-2-yl)oxetan-3-yl)(2-((4-methyl-1-(2,2,2-trifluoroethyl)-1H-pyrazol-3-yl)sulfonyl)-2,6-dihydropyrrolo[3,4-c]pyrazol-5(4H)-yl)methanone] | 0.51 nM | 3% |  |  |
| O=C([C@H](OCCO)c1ccccc1F)N1Cc2cn(S(=O)(=O)c3ccn(CC(F)(F)F)n3)nc2C1 (single isomer, unassigned) [Compound 86] | 1.1 nM |  |  | 0% |
| O=C(N1Cc2cn(S(=O)(=O)c3ccn(CC(F)(F)F)n3)nc2C1)C1(c2ncccc2Cl)COC1 [Compound 65, (3-(3-chloropyridin-2-yl)oxetan-3-yl)(2-((1-(2,2,2-trifluoroethyl)-1H-pyrazol-3-yl)sulfonyl)-2,6-dihydropyrrolo[3,4-c]pyrazol-5(4H)-yl)methanone] | 110 nM | 42% |  |  |
| O=C(N1Cc2cn(S(=O)(=O)c3ccn(CC(F)F)n3)nc2C1)C1(c2ncccc2Cl)COC1 [Compound 64, 3-chloro-2-(3-{2-[1-(2,2-difluoroethyl)pyrazol-3-ylsulfonyl]-4H,6H-pyrrolo[3,4-c]pyrazole-5-carbonyl}oxetan-3-yl)pyridine] | 12 nM | 100% |  |  |
| Cc1noc(C)c1S(=O)(=O)n1cc2c(n1)CN(C(=O)[C@H](CO)c1ccccc1)C2 [Compound 16, (2S)-1-{2-[(3,5-dimethyl-1,2-oxazol-4-yl)sulfonyl]-2H,4H,5H,6H-pyrrolo[3,4-c]pyrazol-5-yl}-3-hydroxy-2-phenylpropan-1-one] | 1000 nM | 55% |  |  |

The next lines start with the values.

| AC50 [1] | Emax | AC50 | PKR % activation (maximal activation level achieved with each compound relative to the activation level achieved by AG-348 @ 10 μM) | Compound |
| --- | --- | --- | --- | --- |
|  | 126% | 380 nM |  | Cc1c(S(=O)(=O)n2cc3c(n2)CN(C(=O)[C@@H](CO)c2ccccc2F)C3)cnn1CC(F)F [Compound 100, (R)-1-(2-((1-(2,2-difluoroethyl)-5-methyl-1H-pyrazol-4-yl)sulfonyl)-2,6 dihydropyrrolo[3,4-c]pyrazol-5(4H)-yl)-2-(2-fluorophenyl)-3-hydroxypropan-1-one] |
| 240 nM | 120% |  |  | O=C([C@@H](CO)c1ccccc1)N1Cc2cn(S(=O)(=O)c3cnn(CC(F)F)c3)nc2C1 [Compound 122, (2R)-1-(2-{[1-(2,2-difluoroethyl)-1H-pyrazol-4-yl]sulfonyl}-2H,4H,5H,6H-pyrrolo[3,4-c]pyrazol-5-yl)-3-hydroxy-2-phenylpropan-1-one] |
|  | 86% | 11 nM |  | C[C@H](O)[C@@H](C(=O)N1Cc2cn(S(=O)(=O)c3cnn(CC(F)F)c3)nc2C1)c1ccccc1 [Compound 6, (2S,3S)-1-(2-{[1-(2,2-difluoroethyl)-1H-pyrazol-4-yl]sulfonyl}-2H,4H,5H,6H-pyrrolo[3,4-c]pyrazol-5-yl)-3-hydroxy-2-phenylbutan-1-one] |
|  | 191% | 150 nM |  | O=C([C@@H](CO)c1ccccc1Cl)N1Cc2cn(S(=O)(=O)c3cnn(CC(F)F)c3)nc2C1 [Compound 46, (R)-2-(2-chlorophenyl)-1-(2-((1-(2,2-difluoroethyl)-1H-pyrazol-4-yl)sulfonyl)-2,6-dihydropyrrolo[3,4-c]pyrazol-5(4H)-yl)-3-hydroxypropan-1-one] |
| 260 nM | 108% |  |  | O=C([C@@H](CO)c1cccc(F)c1F)N1Cc2cn(S(=O)(=O)c3cnn(CC(F)F)c3)nc2C1 [Compound 54, (2R)-1-{2-[1-(2,2-difluoroethyl)pyrazol-4-ylsulfonyl]-4H,6H-pyrrolo[3,4-c]pyrazol-5-yl}-2-(2,3-difluorophenyl)-3-hydroxypropan-1-one] |
| 53 nM | 89% |  |  | O=C([C@H](CO)c1ccccc1Cl)N1Cc2cn(S(=O)(=O)c3ncn(CC(F)F)n3)nc2C1 [Compound 107, (2S)-2-(2-chlorophenyl)-1-{2-[1-(2,2-difluoroethyl)-1,2,4-triazol-3-ylsulfonyl]-4H,6H-pyrrolo[3,4-c]pyrazol-5-yl}-3-hydroxypropan-1-one] |
|  | 112% | 140 nM |  | O=C([C@H](O)c1ccccc1F)N1Cc2cn(S(=O)(=O)c3ccn(CC(F)F)n3)nc2C1 [Compound 51, (2R)-1-{2-[1-(2,2-difluoroethyl)pyrazol-3-ylsulfonyl]-4H,6H-pyrrolo[3,4-c]pyrazol-5-yl}-2-(2-fluorophenyl)-2-hydroxyethanone] |
|  | 90% | 120 nM |  | O=C([C@@H](O)c1ncccc1F)N1Cc2cn(S(=O)(=O)c3cnn(CC(F)F)c3)nc2C1 (single isomer, unassigned) [Compound 39] |
|  | 32% | 7.1 nM |  | Cc1cn(CC(F)F)nc1S(=O)(=O)n1cc2c(n1)CN(C(=O)[C@H](CO)c1ccccc1F)C2 [Compound 78, (2S)-1-{2-[1-(2,2-difluoroethyl)-4-methylpyrazol-3-ylsulfonyl]-4H,6H-pyrrolo[3,4-c]pyrazol-5-yl}-2-(2-fluorophenyl)-3-hydroxypropan-1-one] |
|  | 121% | 1800 nM |  | O=C([C@H](O)c1ncccc1F)N1Cc2cn(S(=O)(=O)c3cnn(CC(F)F)c3)nc2C1 (single isomer, unassigned) [Compound 38] |
